In patent US10689378B2, “Triazolopyridine compounds and uses thereof” (Novartis AG, priority 2016, dated 2020) one finds IC50 data, which are given here for 20 molecules.

Assay [1] has as its target T1, EED (1-441)-His protein (Homo sapiens, UniProt O75530).
T1 construct: 30 nM EED (1-441)-His protein
The assay can be described thus: EED-H3K27Me3 peptide competition binding assay by AlphaScreen. As to conditions: EED-H3K27Me3 peptide competition, AlphaScreen; read-out: (a) IC50 EED Alphascreen binding Qualified. In outline: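 Serially diluted compound (12 points, 3-fold) incubated 20 min with 30 nM EED(1-441)-His and 15 nM biotin-H3K27Me3(19-33) peptide in 25 mM HEPES pH 8, 0.02% Tween-20, 0.5% BSA. Ni-chelate acceptor/streptavidin donor beads (10 μg/mL each) added, 1 h rt dark; 615 nm emission normalized to controls, dose-response fit for IC50.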

The target of assay [2] is wild type PRC2 (wtPRC2) complex (Homo sapiens, UniProt O75530). The assay can be described thus: EED LC-MS assay (SAH production by PRC2). To be noted: PRC2 LC-MS assay; read-out: (b) IC50 EED LC-MS Qualified. The class given is biochemical. The procedure, abridged:
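LC-MS/MS readout of SAH (d4-SAH standard) after TFA quench gives PRC2 activity, normalized to controls and fitted to dose-response for IC50. Reaction: 12 nM EZH2/SUZ12/EED/Rbap48/AEBP complex, 1 μM SAM, 1.5 μM H3[21-44] peptide, 120 min rt, 20 min compound preincubation.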

Assay [3] has as its system H3K27 methylation in G401 cell. As to the kind of experiment: ELISA (H3K27 methylation) assay in G401 cells. The class given is cell-based, human. To be noted: Homo sapiens, G-401, H3K27 methylation ELISA, read-out: (c) IC50 ELISA Qualified. The procedure, abridged: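 IC50 from dose-response fit of percent inhibition relative to DMSO, using H3K27me3/me2 ELISA signal (ECL) normalized to histone H3. Histones HCl-extracted after 48 h compound exposure of G401 cells at up to 20 μM, 8- or 12-point 3-fold series.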

Chain of wild type PRC2 (wtPRC2) complex (O75530 whole entry): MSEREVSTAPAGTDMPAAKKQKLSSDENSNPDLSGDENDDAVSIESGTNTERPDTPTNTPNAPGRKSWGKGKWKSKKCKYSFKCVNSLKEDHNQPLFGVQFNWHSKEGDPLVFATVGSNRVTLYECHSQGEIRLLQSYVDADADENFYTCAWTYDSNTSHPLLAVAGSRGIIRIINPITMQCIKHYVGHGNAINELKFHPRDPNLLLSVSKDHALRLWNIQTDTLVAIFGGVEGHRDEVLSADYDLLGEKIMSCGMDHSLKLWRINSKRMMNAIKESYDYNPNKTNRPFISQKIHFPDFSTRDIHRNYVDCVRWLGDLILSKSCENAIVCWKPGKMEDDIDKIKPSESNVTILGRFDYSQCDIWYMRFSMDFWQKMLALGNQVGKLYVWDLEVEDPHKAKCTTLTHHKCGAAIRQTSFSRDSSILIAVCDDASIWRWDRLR
Chain of wild type PRC2 (wtPRC2) complex (Q15910 whole entry partner): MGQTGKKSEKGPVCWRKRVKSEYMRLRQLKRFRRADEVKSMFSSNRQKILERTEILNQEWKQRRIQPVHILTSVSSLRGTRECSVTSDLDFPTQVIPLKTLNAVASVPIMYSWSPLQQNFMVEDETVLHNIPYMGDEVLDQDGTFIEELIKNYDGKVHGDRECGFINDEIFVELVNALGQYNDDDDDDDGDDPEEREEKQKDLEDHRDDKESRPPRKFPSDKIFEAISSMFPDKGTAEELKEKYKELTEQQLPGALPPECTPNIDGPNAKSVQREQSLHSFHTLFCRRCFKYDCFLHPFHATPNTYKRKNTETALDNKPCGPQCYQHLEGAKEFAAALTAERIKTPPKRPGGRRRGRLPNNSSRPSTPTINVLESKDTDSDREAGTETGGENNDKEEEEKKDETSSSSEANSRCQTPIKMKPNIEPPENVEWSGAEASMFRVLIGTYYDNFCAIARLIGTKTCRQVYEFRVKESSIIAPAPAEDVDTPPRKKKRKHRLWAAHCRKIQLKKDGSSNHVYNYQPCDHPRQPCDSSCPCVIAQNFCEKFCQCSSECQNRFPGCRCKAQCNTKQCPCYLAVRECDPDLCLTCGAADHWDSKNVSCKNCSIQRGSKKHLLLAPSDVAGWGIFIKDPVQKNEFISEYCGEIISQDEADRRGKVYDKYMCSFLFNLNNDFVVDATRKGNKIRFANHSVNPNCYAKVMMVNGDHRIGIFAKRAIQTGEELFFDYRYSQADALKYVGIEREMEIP
Chain of wild type PRC2 (wtPRC2) complex (Q15022 whole entry partner): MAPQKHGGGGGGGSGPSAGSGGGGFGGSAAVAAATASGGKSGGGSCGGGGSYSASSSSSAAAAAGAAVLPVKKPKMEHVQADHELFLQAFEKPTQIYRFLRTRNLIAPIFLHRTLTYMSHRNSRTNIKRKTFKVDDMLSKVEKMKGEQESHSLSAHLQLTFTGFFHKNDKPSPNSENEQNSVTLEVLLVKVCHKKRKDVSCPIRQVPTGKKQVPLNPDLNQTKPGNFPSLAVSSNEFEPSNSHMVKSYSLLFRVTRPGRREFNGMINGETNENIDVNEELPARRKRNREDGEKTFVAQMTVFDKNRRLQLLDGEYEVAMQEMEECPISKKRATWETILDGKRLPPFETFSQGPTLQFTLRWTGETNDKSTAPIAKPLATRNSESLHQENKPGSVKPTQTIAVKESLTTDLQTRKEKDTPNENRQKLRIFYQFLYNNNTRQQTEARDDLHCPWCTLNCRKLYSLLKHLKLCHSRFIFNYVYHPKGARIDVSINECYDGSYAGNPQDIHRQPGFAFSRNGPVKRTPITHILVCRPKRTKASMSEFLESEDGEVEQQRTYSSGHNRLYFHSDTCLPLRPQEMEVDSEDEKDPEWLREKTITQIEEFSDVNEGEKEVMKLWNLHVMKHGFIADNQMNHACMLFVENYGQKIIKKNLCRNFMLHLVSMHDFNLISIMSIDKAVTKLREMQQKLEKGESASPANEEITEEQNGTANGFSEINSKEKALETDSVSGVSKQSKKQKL
Chain of wild type PRC2 (wtPRC2) complex (Q09028 whole entry partner): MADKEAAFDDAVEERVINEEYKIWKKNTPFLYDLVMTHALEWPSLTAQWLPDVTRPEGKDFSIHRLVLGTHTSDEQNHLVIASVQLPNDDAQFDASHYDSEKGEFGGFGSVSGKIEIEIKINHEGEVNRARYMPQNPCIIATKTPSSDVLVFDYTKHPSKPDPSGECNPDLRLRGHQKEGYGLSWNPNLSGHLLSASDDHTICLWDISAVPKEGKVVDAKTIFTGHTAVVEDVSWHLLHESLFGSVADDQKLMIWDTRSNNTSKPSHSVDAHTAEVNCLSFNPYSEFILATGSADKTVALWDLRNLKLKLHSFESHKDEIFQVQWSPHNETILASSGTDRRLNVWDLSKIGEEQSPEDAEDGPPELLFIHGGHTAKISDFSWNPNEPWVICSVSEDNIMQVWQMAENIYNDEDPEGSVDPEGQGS
Chain of wild type PRC2 (wtPRC2) complex (Q6ZN18 whole entry partner): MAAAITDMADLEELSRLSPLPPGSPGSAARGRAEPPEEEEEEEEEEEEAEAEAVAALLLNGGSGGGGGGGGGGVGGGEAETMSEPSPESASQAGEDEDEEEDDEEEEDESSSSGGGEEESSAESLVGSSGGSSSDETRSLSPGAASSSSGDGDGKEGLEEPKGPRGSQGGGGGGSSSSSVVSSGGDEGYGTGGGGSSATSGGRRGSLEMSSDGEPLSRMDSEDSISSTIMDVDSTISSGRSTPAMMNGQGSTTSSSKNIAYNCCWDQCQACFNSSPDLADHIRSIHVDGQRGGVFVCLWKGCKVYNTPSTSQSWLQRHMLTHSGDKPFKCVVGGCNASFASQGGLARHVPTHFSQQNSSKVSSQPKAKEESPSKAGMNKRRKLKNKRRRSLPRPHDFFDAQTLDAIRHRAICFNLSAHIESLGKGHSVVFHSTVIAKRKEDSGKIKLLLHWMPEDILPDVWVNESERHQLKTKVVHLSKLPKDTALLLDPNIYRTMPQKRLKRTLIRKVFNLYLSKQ
T1 sequence (O75530 whole entry): as the sequence (O75530 whole entry) above

The term IC50 denotes the point on the concentration scale where inhibition reaches its midpoint. As for `COc1cccc(F)c1CNc1ccc(-c2ccc(NC(C)=O)nc2)c2nncn12` [Example 196, N-(5-(5-((2-fluoro-6-methoxybenzyl)amino)-[1,2,4]triazolo[4,3-a]pyridin-8-yl)pyridin-2-yl)acetamide], the values for the 50% inhibitory concentration (IC50) in assay [1], in assay [2] and in assay [3] were 25.3 nM, 164 nM and 43.8 nM, respectively.

Turning to `COc1cccc(F)c1CNc1ccc(-c2cncc(OCCCS(C)(=O)=O)c2)c2nncn12` [Example 198, N-(2-fluoro-6-methoxybenzyl)-8-(5-(3-(methylsulfonyl)propoxy)pyridin-3-yl)-[1,2,4]triazolo [4,3-a]pyridin-5-amine], the IC50 in assay [1] came to 34.5 nM; in assay [2] it was 235 nM; in assay [3] it was 32 nM.

For the molecule `COc1cccc(F)c1CNc1ccc(-c2cncc(C3=NC(C)(C)CO3)c2)c2nncn12` [Example 199, 8-(5-(4,4-dimethyl-4,5-dihydrooxazol-2-yl)pyridin-3-yl)-N-(2-fluoro-6-methoxybenzyl)-[1,2,4]triazolo[4,3-a] pyridin-5-amine], the IC50 in assay [1] came to 23.7 nM; in assay [2] it was 328 nM; in assay [3], 31.3 nM.

As for `COc1cccc(F)c1CNc1ccc(-c2cc(F)c(N)c(F)c2)c2nncn12` [Example 200, 8-(4-amino-3,5-difluorophenyl)-N-(2-fluoro-6-methoxybenzyl)-[1,2,4] triazolo[4,3-a]pyridin-5-amine], the IC50 in assay [1] was 71.1 nM; in assay [2], 225 nM; in assay [3] it was 110 nM.

In the case of `COc1cccc(F)c1CNc1ccc(-c2ccc(F)cc2C)c2nncn12` [Example 201, 8-(4-fluoro-2-methylphenyl)-N-(2-fluoro-6-methoxybenzyl)-[1,2,4]triazolo[4,3-a] pyridin-5-amine], the results for the IC50 in assay [1], in assay [2] and in assay [3] were 46.5 nM, 366 nM and 71.7 nM, respectively.

With `COCc1cncc(-c2ccc(NCc3c(F)cccc3OC)n3cnnc23)c1` [Example 203, N-(2-fluoro-6-methoxybenzyl)-8-(5-(methoxymethyl)pyridin-3-yl)-[1,2,4]triazolo[4,3-a] pyridin-5-amine], the IC50 came to 53.8 nM in assay [1], 73 nM in assay [2] and 38.7 nM in assay [3].

With `COc1cccc(F)c1CNc1ccc(-c2ccc(C(C)O)nc2)c2nncn12` (stereo not drawn) [Example 205, 1-(5-(5-((2-fluoro-6-methoxybenzyl)amino)-[1,2,4]triazolo[4,3-a]pyridin-8-yl)pyridin-2-yl)ethanol], the IC50 in assay [1] came out at 53.1 nM; in assay [2], 160 nM; in assay [3], 43.7 nM.

For `COc1cccc(F)c1CNc1ccc(-c2ccc(C(=O)N(C)C)cc2)c2nncn12` [Example 206, 4-(5-((2-fluoro-6-methoxybenzyl)amino)-[1,2,4]triazolo[4,3-a]pyridin-8-yl)-N,N-dimethylbenzamide], the IC50 in assay [1] was found to be 24 nM; in assay [2], 48 nM; in assay [3] it was 24.1 nM.

On to `COc1cccc(F)c1CNc1ccc(-c2cncc(O)c2)c2nncn12` [Example 207, 5-(5-((2-fluoro-6-methoxybenzyl)amino)-[1,2,4]triazolo[4,3-a]pyridin-8-yl) pyridin-3-ol], for which the IC50 in assay [1] was found to be 24.9 nM; in assay [2], 467 nM; in assay [3] it was 74.8 nM.

Regarding `COc1cccc(F)c1CNc1ccc(-c2cnn(C3CC3)c2)c2nncn12` [Example 210, 8-(1-cyclopropyl-1H-pyrazol-4-yl)-N-(2-fluoro-6-methoxybenzyl)-[1,2,4] triazolo[4,3-a]pyridin-5-amine], the values for the half-maximal inhibitory concentration (IC50) in assay [1], in assay [2] and in assay [3] were 42.4 nM, 165 nM and 61.9 nM, respectively.

In the case of `COc1cccc(F)c1CNc1ccc(-c2cnn(C3CCOCC3)c2)c2nncn12` [Example 212, N-(2-fluoro-6-methoxybenzyl)-8-(1-(tetrahydro-2H-pyran-4-yl)-1H-pyrazol-4-yl)-[1,2,4]triazolo[4,3-a] pyridin-5-amine], the IC50 came out at 18 nM in assay [1], 75.6 nM in assay [2] and 22.6 nM in assay [3].

Regarding `COc1cccc(F)c1CNc1ccc(-c2cccnc2Cl)c2nncn12` [Example 213, 8-(2-chloropyridin-3-yl)-N-(2-fluoro-6-methoxybenzyl)-[1,2,4]triazolo[4,3-a]pyridin-5-amine], the IC50 in assay [1] turned out to be 20.5 nM; in assay [2] it was 20 nM; in assay [3] it was 16.5 nM.

Turning to `CO/N=C(\C)c1ccc(-c2ccc(NCc3c(F)cccc3OC)n3cnnc23)cn1` [Example 214, (E)-1-(5-(5-((2-fluoro-6-methoxybenzyl)amino)-[1,2,4]triazolo[4,3-a]pyridin-8-yl)pyridin-2-yl)ethanone O-methyl oxime], the IC50 in assay [1] worked out at 55.2 nM; in assay [2], 965 nM; in assay [3] it was 62.7 nM.

For the molecule `COc1cccc(F)c1CNc1ccc(-c2ccc(N3CCCC3=O)nc2)c2nncn12` [Example 215, 1-(5-(5-((2-fluoro-6-methoxybenzyl)amino)-[1,2,4]triazolo[4,3-a]pyridin-8-yl)pyridin-2-yl)pyrrolidin-2-one], the IC50 in assay [1] stood at 20 nM; in assay [2], 150 nM; in assay [3], 55 nM.

Turning to `COc1cccc(F)c1CNc1ccc(-c2cncc(C(C)(C)O)c2)c2nncn12` [Example 216, 2-(5-(5-((2-fluoro-6-methoxybenzyl)amino)-[1,2,4]triazolo[4,3-a]pyridin-8-yl)pyridin-3-yl)propan-2-ol], the figures for the IC50 in assay [1], in assay [2] and in assay [3] were 33 nM, 449 nM and 25.5 nM, respectively.

Consider `CNC(=O)Cc1cncc(-c2ccc(NCc3c(F)cccc3OC)n3cnnc23)c1` [Example 217, 2-(5-(5-((2-fluoro-6-methoxybenzyl)amino)-[1,2,4]triazolo[4,3-a]pyridin-8-yl)pyridin-3-yl)-N-methyl acetamide], for which the values for the IC50 in assay [1], in assay [2] and in assay [3] were 34.3 nM, 946 nM and 25 nM, respectively.

Regarding `COc1cccc(F)c1CNc1ccc(-c2c(C)ccnc2F)c2nncn12` [Example 218, 8-(2-fluoro-4-methylpyridin-3-yl)-N-(2-fluoro-6-methoxybenzyl)-[1,2,4]triazolo[4,3-a] pyridin-5-amine], the values for the IC50 in assay [1], in assay [2] and in assay [3] were 38.3 nM, 79.5 nM and 42 nM, respectively.

`COc1cccc(F)c1CNc1ccc(-c2cncc(F)c2C)c2nncn12` [Example 219, 8-(5-fluoro-4-methylpyridin-3-yl)-N-(2-fluoro-6-methoxybenzyl)-[1,2,4]triazolo[4,3-a] pyridin-5-amine]: the IC50 in assay [1] was found to be 29.1 nM; in assay [2], 213 nM; in assay [3], 26.7 nM.

In the case of `COc1cc(F)cc(F)c1CNc1ccc(-c2cccnc2)c2nncn12` [Example 220, N-(2,4-difluoro-6-methoxybenzyl)-8-(pyridin-3-yl)-[1,2,4]triazolo[4,3-a]pyridin-5-amine], the IC50 in assay [1] is 46 nM; in assay [2], 142 nM; in assay [3], 55.6 nM.

`COc1cccc(F)c1CNc1ccc(-c2cncnc2C)c2nncn12` [Example 221, N-(2-fluoro-6-methoxybenzyl)-8-(4-methylpyrimidin-5-yl)-[1,2,4] triazolo[4,3-a]pyridin-5-amine]: the 50% inhibitory concentration (IC50) in assay [1] came out at 21.6 nM; in assay [2], 14.9 nM; in assay [3], 12.1 nM.
